Assay results reported in patent US12459951B2, “Compounds that interact with RAS superfamily proteins for treatment of cancers, inflammatory diseases, rasopathies, and fibrotic disease” (SHY Therapeutics, LLC, priority 2022, dated 2025).

Experiments:
[1] = tested on: JNK phosphorylation; assay: JNK Activation Assay (western blot), Panc-1; type: cell-based, human; settings: at 10 μM, Panc-1 pancreatic cancer cell line; starred symbols = activation
Experimental: Protocol for JNK Activation Assay
This assay is referred to as the “JNK Activation Assay” throughout this application.
Cell lines: Human tumor-derived pancreatic cancer cell line Panc-1 (expressing KRas […] mutant) was purchased from American Type Culture Collection and grown in complete DMEM-High Glucose medium, supplemented with penicillin (100 U/mL), streptomycin (100 μg/mL), and 10% heat-inactivated FBS at 37° C. in a humidified incubator with 5% CO2.
Method 1: Cells were plated at 350000 cells/well density in a 12-well plate, allowed 3 hours to adhere to the plate, then starved in the appropriate medium in the presence of 0.5% FBS overnight. The small molecules to be tested were added to the cells in the final concentration of 10 μM in the presence of 0.3% DMSO for 6 hours incubation at 37° C. For IC50 value determination, serial dilutions of compounds were added to cells under the same conditions. Next, cells were stimulated with 1.5 ng/ml EGF for 15 minutes then cells were lysed with lysis buffer containing 1% Triton X-100, EDTA, and Halt™ Protease & Phosphatase Inhibitor Cocktail (Thermo Scientific). Protein concentration was assessed by BCA protein assay (Thermo Scientific). Phosphorylation level of JNK was determined by western blot.
Method 2: Cells were plated at 350000 cells/well density in a 12-well plate in the presence of 10% FBS. The next day small molecules to be tested were added to the cells in the final concentration of 10 μM in the presence of 0.3% DMSO for 6 hours incubation at 37° C. For IC50 value determination, serial dilutions of compounds were added to cells under the same conditions. Next, cells were lysed with lysis buffer containing 1% Triton X-100, EDTA, and Halt™ Protease & Phosphatase Inhibitor Cocktail (Thermo Scientific). Protein concentration was assessed by BCA protein assay (Thermo Scientific). Phosphorylation level of JNK was determined by western blot.
Western blot protocol: Equal amounts of protein (15-50 μg) were separated by SDS-PAGE and transferred to nitrocellulose membranes (Invitrogen by Thermo Fisher Scientific). The membrane was stained with Ponceau S Stain (Boston BioProducts) to verify uniform protein loading. Membranes were blocked with 10% milk and phosphorylation levels of JNK were assessed by incubating overnight at 4° C. with the antibody Phospho-SAPK/JNK (Thr183/Tyr185), from Cell Signaling Technology. Then the membranes were incubated with HRP-conjugated secondary antibody (Jackson Immunoresearch, West Grove, PA). Bands were incubated in Amersham ECL Prime Western Blotting Detection Reagent (GE Healthcare) and visualized using the ChemiDoc MP imaging system (Bio-Rad).

[2] = tested on: KRas Q61H mutant; assay: Ras GTP Binding Domain Inhibition Assay (Ras Superfamily Assay); settings: 20 μM compound; for KRas Q61H mutant + SOS: % inh.: with SOS; for KRas Q61H mutant: % inh.: without SOS
Method in brief: (§1)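 Ni-plate capture of His-tagged protein (10-30 μg/mL, o/n 4° C); cpd 20 μM or dilution series, 1% DMSO, 3 h RT ± Sos 556-1049 last h; 100 nM Cy-labelled GTP 45 min RT; 3× wash; fluorescence read.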

[3] = tested on: KRas G12C mutant; assay: as above; settings: for KRas G12C mutant + SOS: % inh.: with SOS; for KRas G12C mutant: % inh.: without SOS
Method in brief: as §1

[4] = molecular target: T1, Rho-A (Homo sapiens, UniProt P61586); assay: as above; settings: read-out: Rho-A: % inh..
T1 construct: made in house
Method in brief: as §1

T1 sequence (P61586 whole entry): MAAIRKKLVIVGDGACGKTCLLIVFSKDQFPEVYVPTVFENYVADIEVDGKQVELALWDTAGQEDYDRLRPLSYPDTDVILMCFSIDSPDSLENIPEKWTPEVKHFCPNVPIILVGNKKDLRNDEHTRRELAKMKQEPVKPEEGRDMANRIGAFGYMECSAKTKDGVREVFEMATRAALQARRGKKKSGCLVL

Compound	% inh of JNK in Panc-1 [1]	KRas Q61H mutant + SOS: % inh. [2]	KRas Q61H mutant: % inh. [2]	KRas G12C mutant + SOS: % inh. ([3]; 20 μM compound)	KRas G12C mutant: % inh. ([3]; 20 μM compound)	inhibition at 20 µM [4] [%]	KRas G12C mutant + SOS: % inh. ([3]; at 20 μM)	KRas G12C mutant: % inh. ([3]; at 20 μM)
COCC1CCN(c2nc(-c3ccccn3)nn3cc(-c4ccn(C(C)C)n4)c(C)c23)C1 (racemic) [Compound 10, rac 6-(1-Isopropyl-1H-pyrazol-3-yl)-4-(3-(methoxymethyl)pyrrolidin-1-yl)-5-methyl-2-(pyridin-2-yl)pyrrolo[2,1-f][1,2,4]triazine]	E* (E* = 1-30% activation)	0 (0 = 0% inhibition)	A (A = 1-25% inhibition)	0 (0 = 0% inhibition)	B (B = 26-49% inhibition)	0		
COC[C@@H]1CC[C@@H]1CNc1nc(-c2ccccn2)nn2cc(-c3ccn(C(C)C)n3)c(C)c12 (racemic) [Compound 11, rac 6-(1-Isopropyl-1H-pyrazol-3-yl)-N-(((1S,2R)-2-(methoxymethyl)cyclobutyl)methyl)-5-methyl-2-(pyridin-2-yl)pyrrolo[2,1-f][1,2,4]triazin-4-amine]	G* (G* = 75-99% activation)	0 (0 = 0% inhibition)	A (A = 1-25% inhibition)	0 (0 = 0% inhibition)	B (B = 26-49% inhibition)	0		
COC1CCCN(c2nc(-c3ccccn3)nn3cc(-c4ccn(C(C)C)n4)c(C)c23)C1 (racemic) [Compound 12, rac 6-(1-Isopropyl-1H-pyrazol-3-yl)-4-(3-methoxypiperidin-1-yl)-5-methyl-2-(pyridin-2-yl)pyrrolo[2,1-f][1,2,4]triazine]	E* (E* = 1-30% activation)	0 (0 = 0% inhibition)	0 (0 = 0% inhibition)	0 (0 = 0% inhibition)	B (B = 26-49% inhibition)	0		
COc1cc(Nc2nc(-c3ccccn3)nn3cc(-c4ccn(C(C)C)n4)c(C)c23)ncn1 [Compound 13, 6-(1-Isopropyl-1H-pyrazol-3-yl)-N-(6-methoxypyrimidin-4-yl)-5-methyl-2-(pyridin-2-yl)pyrrolo[2,1-f][1,2,4]triazin-4-amine]	H* (H* ≥ 100% activation)	0 (0 = 0% inhibition)	0 (0 = 0% inhibition)	0 (0 = 0% inhibition)	A (A = 1-25% inhibition)	0		
COc1cccc(Nc2nc(-c3ccccn3)nn3cc(-c4ccn(C(C)C)n4)c(C)c23)n1 [Compound 14, 6-(1-Isopropyl-1H-pyrazol-3-yl)-N-(6-methoxypyridin-2-yl)-5-methyl-2-(pyridin-2-yl)pyrrolo[2,1-f][1,2,4]triazin-4-amine]	F* (F* = 31-74% activation)	0 (0 = 0% inhibition)	0 (0 = 0% inhibition)	0 (0 = 0% inhibition)	B (B = 26-49% inhibition)	0		
COc1cccc(-c2cn3nc(-c4nccn4C)nc(O)c3c2C)c1Cl [Compound 15, 6-(2-Chloro-3-methoxyphenyl)-5-methyl-2-(1-methyl-1H-imidazol-2-yl)pyrrolo[2,1-f][1,2,4]triazin-4-ol]	F* (F* = 31-74% activation)	A (A = 1-25% inhibition)	A (A = 1-25% inhibition)	0 (0 = 0% inhibition)	0 (0 = 0% inhibition)	1 to 25		
COCCNc1nc(-c2nccn2C)nn2cc(-c3cccc(OC)c3Cl)c(C)c12 [Compound 16, 6-(2-Chloro-3-methoxyphenyl)-N-(2-methoxyethyl)-5-methyl-2-(1-methyl-1H-imidazol-2-yl)pyrrolo[2,1-f][1,2,4]triazin-4-amine]	F* (F* = 31-74% activation)	0 (0 = 0% inhibition)	A (A = 1-25% inhibition)	0 (0 = 0% inhibition)	B (B = 26-49% inhibition)	0		
Cc1c(-c2ccn(C)n2)cn2nc(-c3nccn3C)nc(N)c12 [Compound 211, 5-Methyl-2-(1-methyl-1H-imidazol-2-yl)-6-(1-methyl-1H-pyrazol-3-yl)pyrrolo[2,1-f][1,2,4]triazin-4-amine]							D (D = 76-100% inhibition)	C (C = 50-75% inhibition)
